From the supplement of paper PMC10307832

Experiments:
Assay in all cases: relative viability (nuclei count vs DMSO), 5 days (fraction); higher = more cells survive
AZ628 + OSI-027 = compound: CC1=C(C=C(C=C1)NC(=O)C2=CC(=CC=C2)C(C)(C)C#N)NC3=CC4=C(C=C3)N=CN(C4=O)C [AZ628] + COc1cccc2cc(-c3nc([C@H]4CC[C@H](C(=O)O)CC4)n4ncnc(N)c34)[nH]c12 [OSI-027] (partner 0.5 µM)
In short: (§1)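 The day after seeding in 1536-well plates, lung cancer cell lines were treated by pin tool with a single drug, or with a fixed anchor-drug dose together with five library-drug doses (not always all listed) in √10 steps. After 5 days, a combined fix-and-stain solution (final 0.05% Triton X-100, 1% formaldehyde, 1 ug/ml Hoechst) was added. Nuclei counted on 4× images gave relative viability as treated counts over vehicle counts, reported as the median of duplicate plates.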

QS11 + OSI-027 = compound: C1CC2=C(C1)C=C(C=C2)OC3=NC(=C4C(=N3)N(C=N4)CC5=CC=C(C=C5)C6=CC=CC=C6)N[C@@H](CC7=CC=CC=C7)CO [QS11] + COc1cccc2cc(-c3nc([C@H]4CC[C@H](C(=O)O)CC4)n4ncnc(N)c34)[nH]c12 [OSI-027] (partner 0.5 µM)
In short: as §1

QS11 + Vorinostat = compound: C1CC2=C(C1)C=C(C=C2)OC3=NC(=C4C(=N3)N(C=N4)CC5=CC=C(C=C5)C6=CC=CC=C6)N[C@@H](CC7=CC=CC=C7)CO [QS11] + O=C(CCCCCCC(=O)Nc1ccccc1)NO [Vorinostat] (partner 1 µM)
In short: as §1

Darinaparsin + Alpelisib = compound: C[As](C)SC[C@H](NC(=O)CC[C@H](N)C(=O)O)C(=O)NCC(=O)O [Darinaparsin] + Cc1nc(NC(=O)N2CCC[C@H]2C(N)=O)sc1-c1ccnc(C(C)(C)C(F)(F)F)c1 [Alpelisib] (partner 2 µM)
In short: as §1

NCI-H2405
relative viability (AZ628 + OSI-027; first compound 0.08 µM): 0.482 | relative viability (AZ628 + OSI-027; first compound 0.253 µM): 0.37 | relative viability (AZ628 + OSI-027; first compound 0.8 µM): 0.393 | relative viability (AZ628 + OSI-027; first compound 2.53 µM): 0.353 | relative viability (AZ628 + OSI-027; first compound 8 µM): 0.345 | relative viability (QS11 + OSI-027; first compound 0.08 µM): 0.626 | relative viability (QS11 + OSI-027; first compound 0.253 µM): 0.663 | relative viability (QS11 + OSI-027; first compound 0.8 µM): 0.64 | relative viability (QS11 + OSI-027; first compound 2.53 µM): 0.654 | relative viability (QS11 + OSI-027; first compound 8 µM): 0.694 | relative viability (QS11 + Vorinostat; first compound 0.08 µM): 1.12 | relative viability (QS11 + Vorinostat; first compound 0.253 µM): 0.957 | relative viability (QS11 + Vorinostat; first compound 0.8 µM): 0.766 | relative viability (QS11 + Vorinostat; first compound 2.53 µM): 1.06 | relative viability (QS11 + Vorinostat; first compound 8 µM): 0.974 | relative viability (Darinaparsin + Alpelisib; first compound 0.08 µM): 0.735 | relative viability (Darinaparsin + Alpelisib; first compound 0.8 µM): 0.734 | relative viability (Darinaparsin + Alpelisib; first compound 2.53 µM): 0.693 | relative viability (Darinaparsin + Alpelisib; first compound 8 µM): 0.755

NCI-H2023
relative viability (AZ628 + OSI-027; first compound 0.08 µM): 0.369 | relative viability (AZ628 + OSI-027; first compound 0.253 µM): 0.374 | relative viability (AZ628 + OSI-027; first compound 0.8 µM): 0.329 | relative viability (AZ628 + OSI-027; first compound 2.53 µM): 0.309 | relative viability (AZ628 + OSI-027; first compound 8 µM): 0.234 | relative viability (QS11 + OSI-027; first compound 0.08 µM): 0.477 | relative viability (QS11 + OSI-027; first compound 0.253 µM): 0.344 | relative viability (QS11 + OSI-027; first compound 0.8 µM): 0.52 | relative viability (QS11 + OSI-027; first compound 2.53 µM): 0.486 | relative viability (QS11 + OSI-027; first compound 8 µM): 0.364 | relative viability (QS11 + Vorinostat; first compound 0.08 µM): 0.417 | relative viability (QS11 + Vorinostat; first compound 0.253 µM): 0.655 | relative viability (QS11 + Vorinostat; first compound 0.8 µM): 0.527 | relative viability (QS11 + Vorinostat; first compound 2.53 µM): 0.759 | relative viability (QS11 + Vorinostat; first compound 8 µM): 0.318 | relative viability (Darinaparsin + Alpelisib; first compound 0.08 µM): 0.658 | relative viability (Darinaparsin + Alpelisib; first compound 0.8 µM): 0.601 | relative viability (Darinaparsin + Alpelisib; first compound 2.53 µM): 0.536 | relative viability (Darinaparsin + Alpelisib; first compound 8 µM): 0.603

PC-3 [JPC-3]
relative viability (AZ628 + OSI-027; first compound 0.08 µM): 0.791 | relative viability (AZ628 + OSI-027; first compound 0.253 µM): 0.731 | relative viability (AZ628 + OSI-027; first compound 0.8 µM): 0.753 | relative viability (AZ628 + OSI-027; first compound 2.53 µM): 0.815 | relative viability (AZ628 + OSI-027; first compound 8 µM): 0.683 | relative viability (QS11 + OSI-027; first compound 0.08 µM): 0.794 | relative viability (QS11 + OSI-027; first compound 0.253 µM): 0.743 | relative viability (QS11 + OSI-027; first compound 0.8 µM): 0.371 | relative viability (QS11 + OSI-027; first compound 2.53 µM): 0.718 | relative viability (QS11 + OSI-027; first compound 8 µM): 0.739 | relative viability (QS11 + Vorinostat; first compound 0.253 µM): 0.722 | relative viability (QS11 + Vorinostat; first compound 0.8 µM): 0.709 | relative viability (QS11 + Vorinostat; first compound 2.53 µM): 0.72 | relative viability (QS11 + Vorinostat; first compound 8 µM): 0.697 | relative viability (Darinaparsin + Alpelisib; first compound 0.08 µM): 1.02 | relative viability (Darinaparsin + Alpelisib; first compound 0.8 µM): 0.982 | relative viability (Darinaparsin + Alpelisib; first compound 2.53 µM): 0.992 | relative viability (Darinaparsin + Alpelisib; first compound 8 µM): 1.11

LXF-289
relative viability (AZ628 + OSI-027; first compound 0.08 µM): 0.812 | relative viability (AZ628 + OSI-027; first compound 0.253 µM): 0.763 | relative viability (AZ628 + OSI-027; first compound 0.8 µM): 0.736 | relative viability (AZ628 + OSI-027; first compound 2.53 µM): 0.74 | relative viability (AZ628 + OSI-027; first compound 8 µM): 0.434 | relative viability (QS11 + OSI-027; first compound 0.08 µM): 0.764 | relative viability (QS11 + OSI-027; first compound 0.253 µM): 0.805 | relative viability (QS11 + OSI-027; first compound 0.8 µM): 0.692 | relative viability (QS11 + OSI-027; first compound 2.53 µM): 0.873 | relative viability (QS11 + OSI-027; first compound 8 µM): 0.82 | relative viability (QS11 + Vorinostat; first compound 0.08 µM): 0.772 | relative viability (QS11 + Vorinostat; first compound 0.253 µM): 0.828 | relative viability (QS11 + Vorinostat; first compound 0.8 µM): 0.724 | relative viability (QS11 + Vorinostat; first compound 2.53 µM): 0.719 | relative viability (QS11 + Vorinostat; first compound 8 µM): 0.637 | relative viability (Darinaparsin + Alpelisib; first compound 0.08 µM): 1.11 | relative viability (Darinaparsin + Alpelisib; first compound 0.8 µM): 1.06 | relative viability (Darinaparsin + Alpelisib; first compound 2.53 µM): 0.851 | relative viability (Darinaparsin + Alpelisib; first compound 8 µM): 1.16

NCI-H1437
relative viability (AZ628 + OSI-027; first compound 0.08 µM): 0.896 | relative viability (AZ628 + OSI-027; first compound 0.253 µM): 0.836 | relative viability (AZ628 + OSI-027; first compound 0.8 µM): 0.723 | relative viability (AZ628 + OSI-027; first compound 2.53 µM): 0.934 | relative viability (AZ628 + OSI-027; first compound 8 µM): 0.904 | relative viability (QS11 + OSI-027; first compound 0.08 µM): 0.95 | relative viability (QS11 + OSI-027; first compound 0.253 µM): 0.946 | relative viability (QS11 + OSI-027; first compound 0.8 µM): 0.77 | relative viability (QS11 + OSI-027; first compound 2.53 µM): 0.834 | relative viability (QS11 + OSI-027; first compound 8 µM): 0.827 | relative viability (QS11 + Vorinostat; first compound 0.08 µM): 0.894 | relative viability (QS11 + Vorinostat; first compound 0.253 µM): 0.751 | relative viability (QS11 + Vorinostat; first compound 0.8 µM): 0.616 | relative viability (QS11 + Vorinostat; first compound 2.53 µM): 0.609 | relative viability (QS11 + Vorinostat; first compound 8 µM): 0.39 | relative viability (Darinaparsin + Alpelisib; first compound 0.08 µM): 1.17 | relative viability (Darinaparsin + Alpelisib; first compound 0.8 µM): 0.942 | relative viability (Darinaparsin + Alpelisib; first compound 2.53 µM): 0.92 | relative viability (Darinaparsin + Alpelisib; first compound 8 µM): 1.16

NCI-H838
relative viability (AZ628 + OSI-027; first compound 0.08 µM): 0.487 | relative viability (AZ628 + OSI-027; first compound 0.253 µM): 0.413 | relative viability (AZ628 + OSI-027; first compound 0.8 µM): 0.303 | relative viability (AZ628 + OSI-027; first compound 2.53 µM): 0.325 | relative viability (AZ628 + OSI-027; first compound 8 µM): 0.354 | relative viability (QS11 + OSI-027; first compound 0.08 µM): 0.339 | relative viability (QS11 + OSI-027; first compound 0.253 µM): 0.366 | relative viability (QS11 + OSI-027; first compound 0.8 µM): 0.362 | relative viability (QS11 + OSI-027; first compound 2.53 µM): 0.378 | relative viability (QS11 + OSI-027; first compound 8 µM): 0.359 | relative viability (QS11 + Vorinostat; first compound 0.08 µM): 0.735 | relative viability (QS11 + Vorinostat; first compound 0.253 µM): 0.642 | relative viability (QS11 + Vorinostat; first compound 0.8 µM): 0.666 | relative viability (QS11 + Vorinostat; first compound 2.53 µM): 0.774 | relative viability (QS11 + Vorinostat; first compound 8 µM): 0.755 | relative viability (Darinaparsin + Alpelisib; first compound 0.08 µM): 1.18 | relative viability (Darinaparsin + Alpelisib; first compound 0.8 µM): 1 | relative viability (Darinaparsin + Alpelisib; first compound 2.53 µM): 0.846 | relative viability (Darinaparsin + Alpelisib; first compound 8 µM): 1.14

NCI-H650
relative viability (AZ628 + OSI-027; first compound 0.08 µM): 0.664 | relative viability (AZ628 + OSI-027; first compound 0.253 µM): 0.687 | relative viability (AZ628 + OSI-027; first compound 0.8 µM): 0.766 | relative viability (AZ628 + OSI-027; first compound 2.53 µM): 0.689 | relative viability (AZ628 + OSI-027; first compound 8 µM): 0.678 | relative viability (QS11 + OSI-027; first compound 0.08 µM): 0.513 | relative viability (QS11 + OSI-027; first compound 0.253 µM): 0.513 | relative viability (QS11 + OSI-027; first compound 0.8 µM): 0.548 | relative viability (QS11 + OSI-027; first compound 2.53 µM): 0.483 | relative viability (QS11 + OSI-027; first compound 8 µM): 0.456 | relative viability (QS11 + Vorinostat; first compound 0.08 µM): 0.496 | relative viability (QS11 + Vorinostat; first compound 0.253 µM): 0.414 | relative viability (QS11 + Vorinostat; first compound 0.8 µM): 0.333 | relative viability (QS11 + Vorinostat; first compound 2.53 µM): 0.416 | relative viability (QS11 + Vorinostat; first compound 8 µM): 0.45 | relative viability (Darinaparsin + Alpelisib; first compound 0.08 µM): 1.17 | relative viability (Darinaparsin + Alpelisib; first compound 0.8 µM): 1.15 | relative viability (Darinaparsin + Alpelisib; first compound 2.53 µM): 1.27 | relative viability (Darinaparsin + Alpelisib; first compound 8 µM): 1.31

LK-2
relative viability (AZ628 + OSI-027; first compound 0.08 µM): 0.191 | relative viability (AZ628 + OSI-027; first compound 0.253 µM): 0.234 | relative viability (AZ628 + OSI-027; first compound 0.8 µM): 0.234 | relative viability (AZ628 + OSI-027; first compound 2.53 µM): 0.187 | relative viability (AZ628 + OSI-027; first compound 8 µM): 0.198 | relative viability (QS11 + OSI-027; first compound 0.08 µM): 0.181 | relative viability (QS11 + OSI-027; first compound 0.253 µM): 0.238 | relative viability (QS11 + OSI-027; first compound 0.8 µM): 0.188 | relative viability (QS11 + OSI-027; first compound 2.53 µM): 0.212 | relative viability (QS11 + OSI-027; first compound 8 µM): 0.22 | relative viability (QS11 + Vorinostat; first compound 0.08 µM): 0.282 | relative viability (QS11 + Vorinostat; first compound 0.253 µM): 0.27 | relative viability (QS11 + Vorinostat; first compound 0.8 µM): 0.467 | relative viability (QS11 + Vorinostat; first compound 2.53 µM): 0.323 | relative viability (QS11 + Vorinostat; first compound 8 µM): 0.28 | relative viability (Darinaparsin + Alpelisib; first compound 0.08 µM): 1.37 | relative viability (Darinaparsin + Alpelisib; first compound 2.53 µM): 1.31 | relative viability (Darinaparsin + Alpelisib; first compound 8 µM): 1.42
